Data: ChEMBL document CHEMBL4814030, “Optimization of ether and aniline based inhibitors of lactate dehydrogenase” (Bioorg Med Chem Lett, 2021)
Values after ≈ are worked out from the molar mass of the structure shown.

Biological target: T1, L-lactate dehydrogenase A chain (Homo sapiens, UniProt P00338)
Assay: Inhibition of LDHA in human MIA PaCa2 cells assessed as reduction in lactate production incubated for 2 hrs by fluorescence based assay
Assay type: cell-based, MIA PaCa-2
Conditions: not given

Structure (SMILES)	IC50
NS(=O)(=O)c1ccc(Cc2c(-c3ccc(F)c(Oc4cccc(F)c4)c3)nn(-c3nc(C(=O)O)cs3)c2CC2CC2)cc1F	970 nM
NS(=O)(=O)c1ccc(Cc2c(-c3cccc(N4CCC(F)(F)CC4)c3)nn(-c3nc(C(=O)O)cs3)c2CC2CC2)cc1F	8700 nM
COc1cc(-c2nn(-c3nc(C(=O)O)cs3)c(CC3CC3)c2Cc2ccc(S(N)(=O)=O)cc2)ccc1F	5700 nM
NS(=O)(=O)c1ccc(Cc2c(-c3cccc(N4CCOCC4)c3)nn(-c3nc(C(=O)O)cs3)c2CC2CC2)cc1F	23400 nM
NS(=O)(=O)c1ccc(Cc2c(-c3ccc(F)c(OCC4CCCO4)c3)nn(-c3nc(C(=O)O)cs3)c2CC2CC2)cc1F (stereo unspecified)	2900 nM
NS(=O)(=O)c1ccc(Cc2c(-c3ccc(F)c(OCc4ccc(F)cc4)c3)nn(-c3nc(C(=O)O)cs3)c2CC2CC2)cc1	3300 nM
NS(=O)(=O)c1ccc(Cc2c(-c3ccc(F)c(OCC4CCOC4)c3)nn(-c3nc(C(=O)O)cs3)c2CC2CC2)cc1F (stereo unspecified)	3000 nM
NS(=O)(=O)c1ccc(Cc2c(-c3ccc(F)c(C(=O)N4CCCC4)c3)nn(-c3nc(C(=O)O)cs3)c2CC2CC2)cc1F	19900 nM
NS(=O)(=O)c1ccc(Cc2c(-c3cccc(OC4CCCC4)c3)nn(-c3nc(C(=O)O)cs3)c2CC2CC2)cc1F	710 nM
NS(=O)(=O)c1ccc(Cc2c(-c3ccc(F)c(OCc4ccc(C(F)(F)F)o4)c3)nn(-c3nc(C(=O)O)cs3)c2CC2CC2)cc1F	1000 nM
NS(=O)(=O)c1ccc(Cc2c(-c3ccc(F)c(C(=O)NCc4ccccc4)c3)nn(-c3nc(C(=O)O)cs3)c2CC2CC2)cc1F	9100 nM
NS(=O)(=O)c1ccc(Cc2c(-c3cccc(N4CCCC(C(F)(F)F)C4)c3)nn(-c3nc(C(=O)O)cs3)c2CC2CC2)cc1F (stereo unspecified)	6900 nM
NS(=O)(=O)c1ccc(Cc2c(-c3cccc(OCc4ccccc4)c3)nn(-c3nc(C(=O)O)cs3)c2CC2CC2)cc1F	690 nM

Other lines, results leading:

IC50	Structure (SMILES)
> 57000 nM	NS(=O)(=O)c1ccc(Cc2cn(-c3nc(C(=O)O)cs3)nc2-c2cccc(OCc3cccnc3)c2)cc1
1700 nM	NS(=O)(=O)c1ccc(Cc2c(-c3ccc(F)c(Oc4ccccc4)c3)nn(-c3nc(C(=O)O)cs3)c2CC2CC2)cc1
6100 nM	NS(=O)(=O)c1ccc(Cc2cn(-c3nc(C(=O)O)cs3)nc2-c2cccc(OCc3cccc(F)c3)c2)cc1
> 57000 nM	COc1cccc(-c2nn(-c3nc(C(=O)O)cs3)cc2Cc2ccc(S(N)(=O)=O)cc2)c1
> 57000 nM	NS(=O)(=O)c1ccc(Cc2cn(-c3nc(C(=O)O)cs3)nc2-c2cccc(OCc3ccccn3)c2)cc1
7700 nM	NS(=O)(=O)c1ccc(Cc2cn(-c3nc(C(=O)O)cs3)nc2-c2cccc(OCC3CCCC3)c2)cc1

Tested on: not listed separately
Assay: Permeability of compound by PAMPA
Assay type: ADME
Conditions: read-out: permeability

Papp	Structure (SMILES)
1.6 ×10⁻⁶ cm/s	NS(=O)(=O)c1ccc(Cc2c(-c3cccc(N4CCOCC4)c3)nn(-c3nc(C(=O)O)cs3)c2CC2CC2)cc1F
5.7 ×10⁻⁶ cm/s	NS(=O)(=O)c1ccc(Cc2c(-c3ccc(F)c(C(=O)N4CCCC4)c3)nn(-c3nc(C(=O)O)cs3)c2CC2CC2)cc1F
12 ×10⁻⁶ cm/s	NS(=O)(=O)c1ccc(Cc2c(-c3ccc(F)c(OCc4ccc(C(F)(F)F)o4)c3)nn(-c3nc(C(=O)O)cs3)c2CC2CC2)cc1F
8.7 ×10⁻⁶ cm/s	NS(=O)(=O)c1ccc(Cc2c(-c3ccc(F)c(C(=O)NCc4ccccc4)c3)nn(-c3nc(C(=O)O)cs3)c2CC2CC2)cc1F

Structure (SMILES)	Papp
NS(=O)(=O)c1ccc(Cc2c(-c3cccc(OCc4ccccc4)c3)nn(-c3nc(C(=O)O)cs3)c2CC2CC2)cc1F	1.1 ×10⁻⁶ cm/s

Biological target: T1, L-lactate dehydrogenase A chain
Assay: Binding affinity to LDHA (unknown origin) by SPR analysis
Conditions: not given

Kd	Structure (SMILES)
0.44 nM	NS(=O)(=O)c1ccc(Cc2c(-c3cccc(N4CCOCC4)c3)nn(-c3nc(C(=O)O)cs3)c2CC2CC2)cc1F
0.001 nM	NS(=O)(=O)c1ccc(Cc2c(-c3ccc(F)c(OCc4ccc(C(F)(F)F)o4)c3)nn(-c3nc(C(=O)O)cs3)c2CC2CC2)cc1F

Structure (SMILES)	Kd
NS(=O)(=O)c1ccc(Cc2c(-c3cccc(OCc4ccccc4)c3)nn(-c3nc(C(=O)O)cs3)c2CC2CC2)cc1F	0.016 nM

Tested on: not listed separately
Assay: Kinetic solubility of compound
Assay type: physicochemical
Conditions: read-out: Kinetic_solubility

solubility kinetic	Structure (SMILES)
> 88 µg/mL	NS(=O)(=O)c1ccc(Cc2c(-c3cccc(N4CCOCC4)c3)nn(-c3nc(C(=O)O)cs3)c2CC2CC2)cc1F
> 93 µg/mL	NS(=O)(=O)c1ccc(Cc2c(-c3ccc(F)c(C(=O)N4CCCC4)c3)nn(-c3nc(C(=O)O)cs3)c2CC2CC2)cc1F
53.2 µg/mL (≈ 76.6 µM)	NS(=O)(=O)c1ccc(Cc2c(-c3ccc(F)c(OCc4ccc(C(F)(F)F)o4)c3)nn(-c3nc(C(=O)O)cs3)c2CC2CC2)cc1F
81 µg/mL (≈ 122 µM)	NS(=O)(=O)c1ccc(Cc2c(-c3ccc(F)c(C(=O)NCc4ccccc4)c3)nn(-c3nc(C(=O)O)cs3)c2CC2CC2)cc1F

Structure (SMILES)	solubility kinetic
NS(=O)(=O)c1ccc(Cc2c(-c3cccc(OCc4ccccc4)c3)nn(-c3nc(C(=O)O)cs3)c2CC2CC2)cc1F	72.4 µg/mL (≈ 117 µM)

Tested on: A673
Assay: Cytotoxicity against human A673 cells assessed as reduction in cell viability incubated for 48 hrs by cell titer glo assay
Assay type: functional, cell-based
Conditions: A673, 48 h

Structure (SMILES)	IC50
NS(=O)(=O)c1ccc(Cc2c(-c3cccc(N4CCOCC4)c3)nn(-c3nc(C(=O)O)cs3)c2CC2CC2)cc1F	20400 nM
NS(=O)(=O)c1ccc(Cc2c(-c3ccc(F)c(C(=O)N4CCCC4)c3)nn(-c3nc(C(=O)O)cs3)c2CC2CC2)cc1F	> 50000 nM
NS(=O)(=O)c1ccc(Cc2c(-c3ccc(F)c(OCc4ccc(C(F)(F)F)o4)c3)nn(-c3nc(C(=O)O)cs3)c2CC2CC2)cc1F	440 nM
NS(=O)(=O)c1ccc(Cc2c(-c3ccc(F)c(C(=O)NCc4ccccc4)c3)nn(-c3nc(C(=O)O)cs3)c2CC2CC2)cc1F	5100 nM
NS(=O)(=O)c1ccc(Cc2c(-c3cccc(OCc4ccccc4)c3)nn(-c3nc(C(=O)O)cs3)c2CC2CC2)cc1F	420 nM

Tested on: MIA PaCa-2
Assay: Cytotoxicity against human MIA PaCa-2 cells assessed as reduction in cell viability incubated for 48 hrs by cell titer glo assay
Assay type: functional, cell-based
Conditions: MIA PaCa-2, 48 h

Structure (SMILES)	IC50
NS(=O)(=O)c1ccc(Cc2c(-c3cccc(N4CCOCC4)c3)nn(-c3nc(C(=O)O)cs3)c2CC2CC2)cc1F	18700 nM
NS(=O)(=O)c1ccc(Cc2c(-c3ccc(F)c(C(=O)N4CCCC4)c3)nn(-c3nc(C(=O)O)cs3)c2CC2CC2)cc1F	6600 nM
NS(=O)(=O)c1ccc(Cc2c(-c3ccc(F)c(OCc4ccc(C(F)(F)F)o4)c3)nn(-c3nc(C(=O)O)cs3)c2CC2CC2)cc1F	2100 nM
NS(=O)(=O)c1ccc(Cc2c(-c3ccc(F)c(C(=O)NCc4ccccc4)c3)nn(-c3nc(C(=O)O)cs3)c2CC2CC2)cc1F	15700 nM
NS(=O)(=O)c1ccc(Cc2c(-c3cccc(OCc4ccccc4)c3)nn(-c3nc(C(=O)O)cs3)c2CC2CC2)cc1F	1400 nM

Biological target: T1, L-lactate dehydrogenase A chain
Assay: Inhibition of recombinant human LDHA using sodium pyruvate as substrate preincubated for 5 mins followed by diaphorase/resazurin addition and measured after 20 mins by fluorescence based assay
Conditions: not given

Structure (SMILES)	IC50
NS(=O)(=O)c1ccc(Cc2c(-c3ccc(F)c(Oc4cccc(F)c4)c3)nn(-c3nc(C(=O)O)cs3)c2CC2CC2)cc1F	27 nM
NS(=O)(=O)c1ccc(Cc2c(-c3cccc(N4CCC(F)(F)CC4)c3)nn(-c3nc(C(=O)O)cs3)c2CC2CC2)cc1F	17 nM
COc1cc(-c2nn(-c3nc(C(=O)O)cs3)c(CC3CC3)c2Cc2ccc(S(N)(=O)=O)cc2)ccc1F	8 nM
NS(=O)(=O)c1ccc(Cc2c(-c3cccc(N4CCOCC4)c3)nn(-c3nc(C(=O)O)cs3)c2CC2CC2)cc1F	27 nM
NS(=O)(=O)c1ccc(Cc2c(-c3ccc(F)c(OCC4CCCO4)c3)nn(-c3nc(C(=O)O)cs3)c2CC2CC2)cc1F (stereo unspecified)	5 nM
NS(=O)(=O)c1ccc(Cc2c(-c3ccc(F)c(OCc4ccc(F)cc4)c3)nn(-c3nc(C(=O)O)cs3)c2CC2CC2)cc1	84 nM
NS(=O)(=O)c1ccc(Cc2c(-c3ccc(F)c(OCC4CCOC4)c3)nn(-c3nc(C(=O)O)cs3)c2CC2CC2)cc1F (stereo unspecified)	5 nM
NS(=O)(=O)c1ccc(Cc2c(-c3ccc(F)c(C(=O)N4CCCC4)c3)nn(-c3nc(C(=O)O)cs3)c2CC2CC2)cc1F	154 nM
NS(=O)(=O)c1ccc(Cc2c(-c3cccc(OC4CCCC4)c3)nn(-c3nc(C(=O)O)cs3)c2CC2CC2)cc1F	13 nM
NS(=O)(=O)c1ccc(Cc2c(-c3ccc(F)c(OCc4ccc(C(F)(F)F)o4)c3)nn(-c3nc(C(=O)O)cs3)c2CC2CC2)cc1F	23 nM
NS(=O)(=O)c1ccc(Cc2c(-c3ccc(F)c(C(=O)NCc4ccccc4)c3)nn(-c3nc(C(=O)O)cs3)c2CC2CC2)cc1F	8 nM
NS(=O)(=O)c1ccc(Cc2c(-c3cccc(N4CCCC(C(F)(F)F)C4)c3)nn(-c3nc(C(=O)O)cs3)c2CC2CC2)cc1F (stereo unspecified)	59 nM
NS(=O)(=O)c1ccc(Cc2c(-c3cccc(OCc4ccccc4)c3)nn(-c3nc(C(=O)O)cs3)c2CC2CC2)cc1F	19 nM

Now from value to compound:

IC50	Structure (SMILES)
77 nM	NS(=O)(=O)c1ccc(Cc2cn(-c3nc(C(=O)O)cs3)nc2-c2cccc(OCc3cccnc3)c2)cc1
34 nM	NS(=O)(=O)c1ccc(Cc2c(-c3ccc(F)c(Oc4ccccc4)c3)nn(-c3nc(C(=O)O)cs3)c2CC2CC2)cc1
26 nM	NS(=O)(=O)c1ccc(Cc2cn(-c3nc(C(=O)O)cs3)nc2-c2cccc(OCc3cccc(F)c3)c2)cc1
90 nM	COc1cccc(-c2nn(-c3nc(C(=O)O)cs3)cc2Cc2ccc(S(N)(=O)=O)cc2)c1
23 nM	NS(=O)(=O)c1ccc(Cc2cn(-c3nc(C(=O)O)cs3)nc2-c2cccc(OCc3ccccn3)c2)cc1
29 nM	NS(=O)(=O)c1ccc(Cc2cn(-c3nc(C(=O)O)cs3)nc2-c2cccc(OCC3CCCC3)c2)cc1

Biological target: T1, L-lactate dehydrogenase A chain
Assay: Inhibition of LDHA in human A673 cells assessed as reduction in lactate production incubated for 2 hrs by fluorescence based assay
Assay type: cell-based
Conditions: not given

IC50	Structure (SMILES)
9400 nM	NS(=O)(=O)c1ccc(Cc2c(-c3cccc(N4CCOCC4)c3)nn(-c3nc(C(=O)O)cs3)c2CC2CC2)cc1F
16600 nM	NS(=O)(=O)c1ccc(Cc2c(-c3ccc(F)c(C(=O)N4CCCC4)c3)nn(-c3nc(C(=O)O)cs3)c2CC2CC2)cc1F
1100 nM	NS(=O)(=O)c1ccc(Cc2c(-c3ccc(F)c(OCc4ccc(C(F)(F)F)o4)c3)nn(-c3nc(C(=O)O)cs3)c2CC2CC2)cc1F
4700 nM	NS(=O)(=O)c1ccc(Cc2c(-c3ccc(F)c(C(=O)NCc4ccccc4)c3)nn(-c3nc(C(=O)O)cs3)c2CC2CC2)cc1F

Structure (SMILES)	IC50
NS(=O)(=O)c1ccc(Cc2c(-c3cccc(OCc4ccccc4)c3)nn(-c3nc(C(=O)O)cs3)c2CC2CC2)cc1F	590 nM

Tested on: not listed separately
Assay: Metabolic stability in rat microsomes assessed as half life
Assay type: ADME, Microsome
Conditions: not given

t1/2	Structure (SMILES)
> 30 min	NS(=O)(=O)c1ccc(Cc2c(-c3cccc(N4CCOCC4)c3)nn(-c3nc(C(=O)O)cs3)c2CC2CC2)cc1F
> 30 min	NS(=O)(=O)c1ccc(Cc2c(-c3ccc(F)c(C(=O)N4CCCC4)c3)nn(-c3nc(C(=O)O)cs3)c2CC2CC2)cc1F
> 30 min	NS(=O)(=O)c1ccc(Cc2c(-c3ccc(F)c(OCc4ccc(C(F)(F)F)o4)c3)nn(-c3nc(C(=O)O)cs3)c2CC2CC2)cc1F
14.9 min	NS(=O)(=O)c1ccc(Cc2c(-c3ccc(F)c(C(=O)NCc4ccccc4)c3)nn(-c3nc(C(=O)O)cs3)c2CC2CC2)cc1F

Structure (SMILES)	t1/2
NS(=O)(=O)c1ccc(Cc2c(-c3cccc(OCc4ccccc4)c3)nn(-c3nc(C(=O)O)cs3)c2CC2CC2)cc1F	2.8 min
